Measured values published in patent US20260159512A1, “BCAT2 INHIBITORS” (AGIOS PHARMACEUTICALS, INC., priority 2021, published 2026).

Experiments:
Details in all cases: average where tested multiple times
BCAT2 [1] = molecular target: T1, BCAT2 (Homo sapiens, UniProt O15382); assay: BCAT2 in vitro enzyme inhibition assay (resazurin/diaphorase-coupled fluorescence); assay type: biochemical
T1 sequence (O15382 28-392): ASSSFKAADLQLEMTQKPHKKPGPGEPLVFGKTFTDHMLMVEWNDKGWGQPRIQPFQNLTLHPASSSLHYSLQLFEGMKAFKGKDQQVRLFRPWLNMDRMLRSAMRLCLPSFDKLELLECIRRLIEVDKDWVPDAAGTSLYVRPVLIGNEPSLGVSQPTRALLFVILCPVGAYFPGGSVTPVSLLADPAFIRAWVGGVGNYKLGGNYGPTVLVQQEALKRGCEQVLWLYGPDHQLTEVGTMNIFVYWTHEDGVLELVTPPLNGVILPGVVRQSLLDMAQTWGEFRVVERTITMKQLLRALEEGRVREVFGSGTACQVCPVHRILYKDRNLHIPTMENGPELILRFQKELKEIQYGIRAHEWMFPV
In short: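 Coupled fluorescence readout: glutamate formed from L-leucine/α-ketoglutarate transamination drives GDH/NAD/diaphorase reduction of resazurin (Ex 540/Em 590). Human BCAT2 was first exposed 1 h at room temperature to compound, top final 100 μM in 3-fold, 10-point series; substrate reaction ran 1 h before SDS quench, in technical duplicate with DMSO max and enzyme-free min controls.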

hBCAT1 = molecular target: T2, hBCAT1 (Homo sapiens, UniProt P54687); assay: BCAT1 in vitro enzyme inhibition assay (resazurin/diaphorase-coupled fluorescence); assay type: biochemical
T2 sequence (P54687 1-386): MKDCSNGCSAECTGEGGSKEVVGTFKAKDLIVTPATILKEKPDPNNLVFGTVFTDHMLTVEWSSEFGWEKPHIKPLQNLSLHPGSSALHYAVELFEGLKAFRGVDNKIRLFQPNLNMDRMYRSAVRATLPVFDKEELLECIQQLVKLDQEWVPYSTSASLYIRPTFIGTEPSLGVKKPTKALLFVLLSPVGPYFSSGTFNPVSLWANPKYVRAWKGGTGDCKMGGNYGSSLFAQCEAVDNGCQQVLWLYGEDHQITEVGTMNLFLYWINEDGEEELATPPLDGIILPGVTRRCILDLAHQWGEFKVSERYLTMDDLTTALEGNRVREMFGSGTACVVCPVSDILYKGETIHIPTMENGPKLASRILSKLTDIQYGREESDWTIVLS
Procedure: BCAT1 In Vitro Enzyme Inhibition Assay
Meanwhile the Substrate Mix was prepared.
Test Compound Preparation:
Test compounds were prepared at 50× final concentration in DMSO, 1 to 3 dilutions were made for 10 points. The compounds were added to the assay as a 1 to 50 dilution (1 μL in 50 μL) to yield a top assay final concentration of 100 μM, decreasing 3-fold for 10 points. […] All tests were performed in technical duplicate.
Where a compound was tested multiple times, the average value of the tests is reported.

BCAT2 [2] = molecular target: T1, BCAT2; assay: BCAT2 in vitro cell inhibition using engineered A549 cells (KMV cell assay, 13C6-KMV by LC-MS/MS); assay type: cell-based; set-up: The result was an engineered A549 cell line that expressed endogenous BCAT2; endogenous in cells; host or cells: A549 cells with MUT and BCAT1 knocked out by CRISPR/CAS9; key to BCAT2 Cell Inhibition: A: less than or equal to 0.100 μM; B: greater than 0.100 and less than or equal to 0.500 μM; C: greater than 0.500 and less than or equal to 1.000 μM; d: greater than 1.000 μM; E: no fit

Row | IC50 (BCAT2 [1]) [nM] | IC50 (hBCAT1) [nM] | IC50 (BCAT2 [2]) [nM] | BCAT2 Cell Inhibition (BCAT2 [2]) | SMILES
1 | ≤ 100 | 1000 to 5000 | 500 to 1000 | – | C#Cc1cnc(C(=O)N[C@H]2CCC[C@@H](n3c(-c4ccccn4)nc4cnc(-n5ccnn5)cc43)C2)s1 [Example 33, 5-ethynyl-N-((1S,3R)-3-(2-(pyridin-2-yl)-6-(1H-1,2,3-triazol-1-yl)-1H-imidazo[4,5-c]pyridin-1-yl)cyclohexyl)thiazole-2-carboxamide]
2 | 100 to 500 | 1000 to 5000 | – | E | O=C(O)Cc1ccccc1-c1nc2cnc(-n3nccn3)cc2n1[C@@H]1CCC[C@H](NC(=O)c2ncc(C(F)F)s2)C1 [Example 96, 2-(2-(1-((1R,3S)-3-(5-(difluoromethyl)thiazole-2-carboxamido)cyclohexyl)-6-(2H-1,2,3-triazol-2-yl)-1H-imidazo[4,5-c]pyridin-2-yl)phenyl)acetic acid]
3 | ≤ 100 | < 500 | ≤ 100 | – | COc1cccc(-c2nc3cnc(-c4nc[nH]n4)cc3n2[C@@H]2CCC[C@H](NC(=O)c3ccc(Cl)s3)C2)c1F [Example 348, 5-chloro-N-((1S,3R)-3-(2-(2-fluoro-3-methoxyphenyl)-6-(1H-1,2,4-triazol-3-yl)-1H-imidazo[4,5-c]pyridin-1-yl)cyclohexyl)thiophene-2-carboxamide]
4 | ≤ 100 | < 500 | ≤ 100 | – | O=C(NC1CC(O)CC(n2c(-c3ccccc3F)nc3cnc(-n4nccn4)cc32)C1)c1ncc(Cl)s1 (stereo not drawn) [Example 109, 5-chloro-N-(3-(2-(2-fluorophenyl)-6-(2H-1,2,3-triazol-2-yl)-1H-imidazo[4,5-c]pyridin-1-yl)-5-hydroxycyclohexyl)thiazole-2-carboxamide]
5 | > 1000 | > 5000 | – | E | Cc1noc(C)c1-c1nc2cnc(-n3ccnn3)cc2n1[C@@H]1CCC[C@H](NC(=O)c2ncc(C(F)F)s2)C1 [Example 48, 5-(difluoromethyl)-N-((1S,3R)-3-(2-(3,5-dimethylisoxazol-4-yl)-6-(1H-1,2,3-triazol-1-yl)-1H-imidazo[4,5-c]pyridin-1-yl)cyclohexyl)thiazole-2-carboxamide]
6 | ≤ 100 | < 500 | ≤ 100 | – | CC(C)Cc1nc2cnc(-c3nc[nH]n3)cc2n1[C@H]1C[C@@H](NC(=O)c2ncc(Cl)s2)CN(C)C1 (single isomer, unassigned) [Example 136]
7 | ≤ 100 | < 500 | ≤ 100 | – | Cc1csc(-c2cc3c(cn2)nc(CC(C)C)n3[C@@H]2CCC[C@H](NC(=O)c3ncc(Cl)s3)C2)n1 [Example 326, 5-chloro-N-((1S,3R)-3-(2-isobutyl-6-(4-methylthiazol-2-yl)-1H-imidazo[4,5-c]pyridin-1-yl)cyclohexyl)thiazole-2-carboxamide]
8 | ≤ 100 | < 500 | ≤ 100 | – | C#Cc1cnc(C(=O)N[C@H]2CCC[C@@H](n3c(-c4ncccc4C)nc4cnc(-n5nccn5)cc43)C2)s1 [Example 61, 5-ethynyl-N-((1S,3R)-3-(2-(3-methylpyridin-2-yl)-6-(2H-1,2,3-triazol-2-yl)-1H-imidazo[4,5-c]pyridin-1-yl)cyclohexyl)thiazole-2-carboxamide]
9 | 100 to 500 | > 5000 | – | – | O=C(NC1CCC(n2c(-c3ccccn3)nc3cnc(-n4nccn4)cc32)C1)c1ccc(Br)s1 (stereo not drawn) [Example 93, 5-bromo-N-(3-(2-(pyridin-2-yl)-6-(2H-1,2,3-triazol-2-yl)-1H-imidazo[4,5-c]pyridin-1-yl)cyclopentyl)thiophene-2-carboxamide]
10 | 500 to 1000 | > 5000 | – | – | O=C(N[C@H]1CCC[C@@H](n2c(-c3ccccn3)nc3cc(-n4cncn4)ncc32)C1)c1ccc(Br)s1 [Example 150, 5-bromo-N-((1S,3R)-3-(2-(pyridin-2-yl)-6-(1H-1,2,4-triazol-1-yl)-3H-imidazo[4,5-c]pyridin-3-yl)cyclohexyl)thiophene-2-carboxamide]
11 | 500 to 1000 | > 5000 | – | – | O=C(N[C@H]1CCC[C@@H](n2c(-c3ccccn3)nc3cc(-c4cnco4)ncc32)C1)c1ccc(Br)s1 [Example 154, 5-bromo-N-((1S,3R)-3-(6-(oxazol-5-yl)-2-(pyridin-2-yl)-3H-imidazo[4,5-c]pyridin-3-yl)cyclohexyl)thiophene-2-carboxamide]
12 | ≤ 100 | 1000 to 5000 | – | – | O=C(NC1CCCC(n2c(-c3ccccn3)nc3cc(-c4ncon4)ncc32)C1)c1ccc(Br)s1 (stereo not drawn) [Example 155, N-(3-(6-(1,2,4-oxadiazol-3-yl)-2-(pyridin-2-yl)-3H-imidazo[4,5-c]pyridin-3-yl)cyclohexyl)-5-bromothiophene-2-carboxamide]
13 | ≤ 100 | 1000 to 5000 | – | – | Cc1cn(-c2cc3c(cn2)nc(-c2ccccn2)n3[C@@H]2CCC[C@H](NC(=O)c3ccc(Br)s3)C2)nn1 [Example 40, 5-bromo-N-((1S,3R)-3-(6-(4-methyl-1H-1,2,3-triazol-1-yl)-2-(pyridin-2-yl)-1H-imidazo[4,5-c]pyridin-1-yl)cyclohexyl)thiophene-2-carboxamide]
14 | ≤ 100 | 1000 to 5000 | – | – | C#Cc1cnc(C(=O)N[C@H]2CCC[C@@H](n3c(-c4ccccn4)nc4cnc(-n5cncn5)cc43)C2)s1 [Example 27, 5-ethynyl-N-((1S,3R)-3-(2-(pyridin-2-yl)-6-(1H-1,2,4-triazol-1-yl)-1H-imidazo[4,5-c]pyridin-1-yl)cyclohexyl)thiazole-2-carboxamide]
15 | > 1000 | > 5000 | – | – | O=C(NC1CCC(n2c(-c3ccccn3)nc3cnc(-n4ccnn4)cc32)C1)c1ccc(Br)s1 (stereo not drawn) [Example 94, 5-bromo-N-(3-(2-(pyridin-2-yl)-6-(1H-1,2,3-triazol-1-yl)-1H-imidazo[4,5-c]pyridin-1-yl)cyclopentyl)thiophene-2-carboxamide]
16 | ≤ 100 | < 500 | – | – | O=C(N[C@H]1CCC[C@@H](n2c(-c3ccccc3F)nc3cnc(-n4cncn4)cc32)C1)c1ccc(Br)s1 [Example 17, 5-bromo-N-((1S,3R)-3-(2-(2-fluorophenyl)-6-(1H-1,2,4-triazol-1-yl)-1H-imidazo[4,5-c]pyridin-1-yl)cyclohexyl)thiophene-2-carboxamide]
17 | 100 to 500 | 1000 to 5000 | – | – | C[C@@H]1CCCN1c1cc2c(cn1)nc(-c1ccccc1F)n2[C@@H]1CCC[C@H](NC(=O)c2ncc(Cl)s2)C1 [Example 195, 5-chloro-N-((1S,3R)-3-(2-(2-fluorophenyl)-6-((R)-2-methylpyrrolidin-1-yl)-1H-imidazo[4,5-c]pyridin-1-yl)cyclohexyl)thiazole-2-carboxamide]
18 | > 1000 | 1000 to 5000 | – | – | CC(C)Cc1nc2cnc(-n3nccn3)cc2n1[C@H]1CCC[C@@H](NC(=O)c2ccc(Cl)s2)[C@@H]1O [Example 394, 5-chloro-N-((1R,2S,3S)-2-hydroxy-3-(2-isobutyl-6-(2H-1,2,3-triazol-2-yl)-1H-imidazo[4,5-c]pyridin-1-yl)cyclohexyl)thiophene-2-carboxamide]
19 | ≤ 100 | > 5000 | – | – | CC(C)(O)c1cnn(-c2cc3c(cn2)nc(-c2ccccn2)n3[C@@H]2CCC[C@H](NC(=O)c3ncc(C(F)F)s3)C2)n1 [Example 70, 5-(difluoromethyl)-N-((1S,3R)-3-(6-(4-(2-hydroxypropan-2-yl)-2H-1,2,3-triazol-2-yl)-2-(pyridin-2-yl)-1H-imidazo[4,5-c]pyridin-1-yl)cyclohexyl)thiazole-2-carboxamide]
20 | > 1000 | > 5000 | – | – | Cn1cc(-c2cc3nc(-c4ccccn4)n(C4CCCC(NC(=O)c5ccc(Br)s5)C4)c3cn2)cn1 (stereo not drawn) [Example 156, 5-bromo-N-(3-(6-(1-methyl-1H-pyrazol-4-yl)-2-(pyridin-2-yl)-3H-imidazo[4,5-c]pyridin-3-yl)cyclohexyl)thiophene-2-carboxamide]
